Measurements reported in ChEMBL document CHEMBL3751836, “Novel peptidomimetics related to gonadotropin-releasing hormone (GnRH)” (Medchemcomm, 2015).
Active and inactive are the calls of the source. No cut-off for these calls is given here.

Legend:
HEK293 = assay: Antiproliferative activity against HEK293 cells expressing human type 1 GnRH receptor at 1 uM after 4 days by MTT assay; assay type: functional, cell-based
[1] = target: T1, Gonadotropin-releasing hormone receptor (Homo sapiens) (UniProt P30968); assay: (§1) Displacement of [125I]-DTyr6-His5-GnRH from human type 1 GnRH receptor expressed in HEK293 cell membranes after 16 to 19 hrs by gamma counting analysis
T1 sequence (whole entry): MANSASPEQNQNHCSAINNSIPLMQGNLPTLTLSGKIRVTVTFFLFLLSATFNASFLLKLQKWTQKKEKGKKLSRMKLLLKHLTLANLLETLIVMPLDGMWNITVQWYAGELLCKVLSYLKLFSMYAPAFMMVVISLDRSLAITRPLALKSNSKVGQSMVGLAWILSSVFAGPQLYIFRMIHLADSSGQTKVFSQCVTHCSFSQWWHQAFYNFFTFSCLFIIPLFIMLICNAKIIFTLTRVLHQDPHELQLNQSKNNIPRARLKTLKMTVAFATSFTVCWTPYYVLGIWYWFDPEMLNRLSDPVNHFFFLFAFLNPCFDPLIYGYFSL

[2] = target: T2, Gonadotropin-releasing hormone receptor (Homo sapiens, UniProt P30968); assay: as §1
T2 sequence (P30968 whole entry): T1 sequence (whole entry)

[3] = Metabolic stability in rat plasma at 100 uM after 4 hrs by HPLC/mass spectrometric analysis relative to GnRH2; assay type: ADME, cell-free; conditions: read-out: Stability
[4] = Metabolic stability in rat plasma assessed as half life at 100 uM by HPLC/mass spectrometric analysis; assay type: ADME, cell-free
[5] = Metabolic stability in rat plasma at 100 uM after 4 hrs by HPLC/mass spectrometric analysis relative to GnRH1; assay type: ADME, cell-free; conditions: read-out: Stability

| SMILES | Activity [1] | IC50 [2] [µM] | remaining at 4 h, 100 µM [3] [%] | half-life at 100 µM [4] [h] | remaining at 4 h, 100 µM [5] [%] | Activity (HEK293) |
| --- | --- | --- | --- | --- | --- | --- |
| CCNC(=O)[C@@H]1CCCN1C(=O)[C@H](CCCNC(=N)N)NC(=O)[C@H](CC(C)C)NC(=O)[C@@H](CC(C)C)NC(=O)[C@H](Cc1ccc(O)cc1)NC(=O)[C@H](CO)NC(=O)[C@H](Cc1c[nH]c2ccccc12)NC(=O)[C@H](Cc1c[nH]cn1)NC(=O)[C@@H]1CCC(=O)N1 |  |  |  |  |  | Active |
| CC(C)C[C@H](NC(=O)C1(NC(=O)[C@H](Cc2ccc(O)cc2)NC(=O)[C@H](CO)NC(=O)[C@H](Cc2c[nH]c3ccccc23)NC(=O)[C@H](Cc2c[nH]cn2)NC(=O)[C@@H]2CCC(=O)N2)CCCC1)C(=O)N[C@@H](CCCNC(=N)N)C(=O)N1CCC[C@H]1C(=O)NCC(N)=O | Dose-dependent effect | 0.589 |  |  |  |  |
| CC(C)C[C@H](NC(=O)CNC(=O)[C@H](Cc1ccc(O)cc1)NC(=O)[C@H](CO)NC(=O)[C@H](Cc1c[nH]c2ccccc12)NC(=O)[C@H](Cc1cnc[nH]1)NC(=O)[C@@H]1CCC(=O)N1)C(=O)N[C@@H](CCCNC(=N)N)C(=O)N1CCC[C@H]1C(=O)NCC(N)=O [GONADORELIN] |  |  |  | 2.63 |  |  |

Continued by falling IC50 [2], values first:

| Activity [1] | IC50 [2] [µM] | remaining at 4 h, 100 µM [3] [%] | half-life at 100 µM [4] [h] | remaining at 4 h, 100 µM [5] [%] | SMILES | Activity (HEK293) |
| --- | --- | --- | --- | --- | --- | --- |
| Dose-dependent effect | 0.724 |  |  |  | CC(C)C[C@H](NC(=O)CN1CN(c2ccccc2)C2(CCN(C(=O)[C@H](Cc3c[nH]c4ccccc34)NC(=O)[C@H](Cc3c[nH]cn3)NC(=O)[C@@H]3CCC(=O)N3)CC2)C1=O)C(=O)N[C@@H](CCCNC(=N)N)C(=O)N1CCC[C@H]1C(=O)NCC(N)=O |  |
| Dose-dependent effect | 0.55 |  | 3.96 | 15 | CC(C)C[C@H](NC(=O)C1(NC(=O)[C@H](Cc2ccc(O)cc2)NC(=O)[C@H](CO)NC(=O)[C@H](Cc2c[nH]c3ccccc23)NC(=O)[C@H](Cc2c[nH]cn2)NC(=O)[C@@H]2CCC(=O)N2)CCCCC1)C(=O)N[C@@H](CCCNC(=N)N)C(=O)N1CCC[C@H]1C(=O)NCC(N)=O |  |
| Dose-dependent effect | 0.407 | 15 |  |  | NC(=O)CNC(=O)[C@@H]1CCCN1C(=O)[C@@H](Cc1ccc(O)cc1)NC(=O)[C@@H](Cc1c[nH]c2ccccc12)NC(=O)C1(NC(=O)[C@H](Cc2cnc[nH]2)NC(=O)[C@H](CO)NC(=O)[C@H](Cc2c[nH]c3ccccc23)NC(=O)[C@H](Cc2c[nH]cn2)NC(=O)[C@@H]2CCC(=O)N2)CCCCC1 | Active |
| Dose-dependent effect | 0.282 |  |  |  | NC(=O)CNC(=O)[C@H]1CCCN1C(=O)[C@H](Cc1ccc(O)cc1)NC(=O)[C@H](Cc1c[nH]c2ccccc12)NC(=O)C1(NC(=O)[C@@H](Cc2cnc[nH]2)NC(=O)[C@@H](CO)NC(=O)[C@@H](Cc2c[nH]c3ccccc23)NC(=O)[C@@H](Cc2c[nH]cn2)NC(=O)[C@H]2CCC(=O)N2)CCCC1 |  |
| Dose-dependent effect | 0.191 |  |  |  | NC(=O)CNC(=O)[C@H]1CCCN1C(=O)[C@H](Cc1ccc(O)cc1)NC(=O)[C@H](Cc1c[nH]c2ccccc12)NC(=O)C1(NC(=O)[C@@H](Cc2cnc[nH]2)NC(=O)[C@@H](CO)NC(=O)[C@@H](Cc2c[nH]c3ccccc23)NC(=O)[C@@H](Cc2c[nH]cn2)NC(=O)[C@H]2CCC(=O)N2)CCC1 |  |
